Tests used:
[1] = tested on: MCF7 Cell line (Breast Cancer); assay: NCI three cell-line test; type: cell-based, human; conditions: 1(10^−4) Molar in growth medium, percent of growth of untreated control cells
Procedure: (§1) The testing in this Example was performed by NCI, as per their 3-cell line panel test. The results are reported as the percent of the growth of the treated cells compared to the untreated control cells. The criterion for being an effective compound and for being subjected to further testing is that the tested compound reduce the growth of any one of the three cell lines to approximately 32% or less.
(§2) The methods for conducting the test are described below in Example 3, except that the cells were exposed to a single concentration of MT103, at 1×10^−4 Molar, and colorimetric determinations were made with alamar blue (Biotechniques 21(5):780-782 (1996)).
(§3) Methodology: The NCI conducted a test of the MT103 drug against 60 human cell lines, with a minimum of five concentrations of MT103 at 10-fold dilutions. A 48 hour continuous drug exposure was used, and a sulforhodamine B (SRB) protein assay was used to estimate cell viability and growth. The human tumor cell lines of the cancer screening panel were grown in RPMI 1640 medium containing 5% fetal bovine serum and 2 mM L-glutamine. Cells were inoculated into 96 well microtiter plates in 100 μL at plating densities ranging from 5,000 to 40,000 cells/well depending on the doubling time of individual cell lines. After cell inoculation, the microtiter plates are incubated at 37° C., 5% CO2, 95% air, and 100% relative humidity for 24 h prior to addition of experimental drugs. […]
(§4) Following drug addition, the plates were incubated for an additional 48 h at 37° C., 5% CO2, 95% air, and 100% relative humidity. […] Bound stain was subsequently solubilized with 10 mM trizma base, and the absorbance was read on an automated plate reader at a wavelength of 515 nm. […] Using the seven absorbance measurements (time zero, (Tz), control growth, (C), and test growth in the presence of drug at the five concentration levels (Ti)), the percentage growth was calculated at each of the drug concentrations levels. Percentage growth inhibition was calculated as: […]

[2] = tested on: SF-268 Cell Line (Central Nervous System); assay: NCI three cell-line test; type: cell-based, human; conditions: 1(10^−4) Molar in growth medium, percent of growth of untreated control cells
Procedure: as §1, §2, §3, §4

[3] = tested on: NCI-H460 Cell Line (Non-Small cell Lung); assay: NCI three cell-line test; type: cell-based, human; conditions: 1(10^−4) Molar in growth medium, percent of growth of untreated control cells
Procedure: as §1, §2, §3, §4

[4] = tested on: NCI-H226 squamous carcinoma; assay: Induced-tumor NOD/SCID mouse model, comparison to cisplatin (Example 8); type: in vivo, NOD/SCID mice
Procedure: A standard induced-tumor NOD/SCID mouse model was used to perform this investigation, with the mouse model being based on protocols for human xenograft systems developed at the National Cancer Institute. H226 cell cancer tumors were induced in NOD/SCID mice; tumors at sizes approximately 100 mm^3 were treated with 30 mg/kg MT103 or a control containing only vehicle (2.5% DMSO in distilled water) administered in intraperitoneal injections every other day for two weeks.
This experiment provides in vivo test data showing that the MT103 family of compounds are effective anti-cancer agents. […] MT103 was tested at three dose levels (60, 120, and 240 mg/kg). Experiments were performed as described in Example 7, NOD/SCID mice, (NOD.CB17-Prkdcscid/J) except that tumors were treated with: one of three doses of MT103 or Cisplatin or sham for 3 intraperitoneal injections (one every 4 days) in a 2-cycle 56-day test that was extended to another cycle to 86 days, as reflected in FIG. 5. Tumor volumes were measured every other day.

Compound: CC1(C)C2CC[C@@]1(CS(=O)(=O)N(C1CCCCC1)C1CCCCC1)C(O)C2 (some centres unmarked) [MT103]
- Growth, Percentage [1]: 0%
- Growth, Percentage [2]: 14%
- Growth, Percentage [3]: 16%
- blood counts and electrolytes ([4]; 120 mg/kg versus control): no differences in blood counts and electrolytes
- organ appearance ([4]; 120 mg/kg versus control): no observable differences in organ appearance
- improvement compared to cisplatin ([4]; 120 mg/kg, among the range of doses tested): most improvement compared to cisplatin
- mean tumor growth ([4]; 60, 120, 240 mg/kg, 3 intraperitoneal injections (one every 4 days) per cycle, p=0.046, FIG. 5): mean tumor growth slowed
- effect in comparison to cisplatin ([4]; depending upon the dosages administered (60, 120, 240 mg/kg)): comparable or superior effect
